In experiment [1] the test system is E. coli. Description: Thioredoxin reductase cross-reactivity with DTNB substrate. Type of experiment: biochemical. The settings on record: up to 10^6 CFU/ml E. coli. The source says:
(§1) Since thioredoxin reductases are widely distributed in eukaryotes and prokaryotic cells, there is a possibility that thioredoxin reductases from other microbes may cross-react with this assay to give a false positive result. […] This high NTS activity is presumed to be useful for Mycoplasma for the detoxification of reactive oxygen compounds, since the Mollicutes have simple genomes that lack the genes encoding enzymes such as catalase, peroxidase and […] that function to remove H2O2 and other oxygen radicals in other bacteria (Gibson, D. G., et al., Complete chemical synthesis, assembly, and cloning of a Mycoplasma genitalium genome. Science. 319(5867):1215-1220 (2008)).

Experiment [2] deals with S. aureus. Described as above. Type of experiment: biochemical. The settings on record: up to 10^6 CFU/ml S. aureus.
Excerpt: as §1

Experiment [3] concerns Mycoplasma cells. As to the kind of experiment: Detergent lysis buffer procedure for trxB assay. Type of experiment: cell-based. The method, then:
A detergent lysis buffer procedure that would hydrolyze the simple Mycoplasma cell membranes but not lyse the tissue culture cells was needed. Methyl-6-O—(N-heptylcarbamoyl)-α-D-glucopyranoside (HECAMEG) is a preferred detergent. […] As expected, 0.1 mM NADPH enhanced the activity of trxB (FIG. 12). As a substrate for trxB, Bodipy® FL L-cystine provided a signal that was 7500 times that of the buffer control, however this signal was an artifact of the digitonin.

Experiment [4] has as its system reductases produced by the bacteria. Description: Dye decolorization by bacterial culture supernatants. Type of experiment: biochemical. The conditions noted are these: bacterial culture supernatant, about 18 hours incubation. The method, then:
Each well was incubated with 10 μg of reactive black 5 plus 190 μl of culture supernatant from the following bacterium: E. coli, E. faecalis, S. aureus, P. aeruginosa, S. pyogenes, and S. marcescens. […] The decolorization is indicative of reductases produced by the bacteria.
Reductase activity can be measured through a Azo dye that gets decolorized by the release of reductases from many bacterial cells. […] A sensor placed on the bottom of a culture dish, buffer container or even on a swab for measuring the presence of mycoplasma in human fluids can be used to ascertain bacterial contamination or infection. The benefit of a simple azo dye sensor is low cost although it may not specifically detect different bacteria. […] Each well was incubated with 10 μg of reactive black 5 plus 190 μl of filtered culture supernatant from the following bacterium: E. coli, E. faecalis, S. aureus, P. aeruginosa, S. pyogenes, and S. marcescens. […] The decolorization is indicative of reductases produced by the bacteria.

In experiment [5] the test system is M. hyorhinis. Description: Effect of divalent cations on Vmax, MCA-Leu substrate. Type of experiment: biochemical, Mycoplasma hyorhinis. More on the design: unit not given here. The conditions noted are these: 1 mM additive in place of 1 mM MgCl2. As to the method:
(§2) A presently preferred substrate is leu-MCA that had significant activity above the uninfected media control under the gentle conditions used to lyse the Mycoplasma (0.05% HECAMEG, 1 mM MgCl2, 100 mM NaCl, 40 mM Tris buffer, pH 8.5). The MCA-Leu substrate produces a signal level of 500 mOD in 30 minutes with M. hyorhinis, while M. hyorhinis has weak activity for arg-MCA.
Detergent lysis of M. hyorhinis with HECAMEG gives better signal than sonication. Manganese or magnesium also improves the signal to noise ratio.

In experiment [6] the test system is M. hyorhinis. Description: Vmax measured using MCA labeled substrates with gentle HECAMEG lysis. It is filed as biochemical, Mycoplasma hyorhinis. Details: Vmax: unit not given here. The method, then:
as §2

The subject of experiment [7] is thioredoxin reductase (trxB). Description: Thioredoxin reductase (trxB) detection assay. Type of experiment: biochemical, Mycoplasma hyorhinis. As to the method:
Other fluorescent probes such as BODIPY®FL L-cystine and the 2′,7′-difluoro-4′-(2-(5-((dimethyl amino phenyl)azo)pyridyl)dithiopropionyl aminomethyl)fluorescein (abbreviated as DFDMAP-fluorescein) were studied to improve the sensitivity and the signal-to-noise ratio of the assay. Assays were performed with 40 mM Tris pH 7.2, 100 mM NaCl±detergent.
A detergent lysis buffer procedure that would hydrolyze the simple Mycoplasma cell membranes but not lyse the tissue culture cells was needed. Methyl-6-O—(N-heptylcarbamoyl)-α-D-glucopyranoside (HECAMEG) is a preferred detergent.
An alternative substrate to produce the thioredoxin reductase signal was to measure the release of horseradish peroxidase (HRP) from a chromatography bead tethered with the heterobifunctional crosslinking reagent 3,3′-dithiobis[sulfosuccinimidylpropionate] (DTSSP).

Experiment [8] concerns lon ATP-dependent protease. As to the kind of experiment: Assays for proteolytic activity, fluorogenic MCA substrate (Table 5). It is filed as biochemical, Mycoplasma hyorhinis. Details: unit not given beside the values. An excerpt:
(§3) Further studies examined the suitability of the […] for use in a diagnostic test. These studies used several fluorogenic substrates consisting of small chain amino acids coupled to a methoxy coumarin fluorescent probe (MCA, (7-methoxycoumarin-4-yl)acetyl). The test conditions were “buffer,” phosphate-buffered saline (PBS), “uninfected medium,” medium from cell cultures not infected with Mycoplasma, “infected medium,” medium from cell cultures infected with Mycoplasma, and a Mycoplasma positive control derived from a Mycoplasma culture. In each case the uninfected media control had substantial background proteolytic activity, with pepA being the most candidate with a signal-to-noise ratio (S/N) of about 2, where S/N=(Vmax infected medium)/(Vmax uninfected medium).

Experiment [9] relates to pepA Leucine aminopeptidase. The experiment is described as above. It is filed as biochemical, Mycoplasma hyorhinis.
Excerpt: as §3

Experiment [10] concerns map Methionine aminopeptidase. The experiment is described as above. More on the design: unit not given beside the values. It is filed as biochemical, Mycoplasma hyorhinis.
Excerpt: as §3

The results in this text go back to US20100221758A1, “Sensors for Measuring Contaminants” (ECI Biotech Inc., priority 2007, published 2010).

Entries after “also recorded” stand apart in the source; their conditions may differ. Starred links: 1 amine or outer side, 2 acyl side, 3 side chain; linkers in the order of their positions; H or OH if unused. Residues, ends and D or L forms follow the SMILES beside them. *: point of attachment. Glutaryl = O=C(CCCC(=O)[*:2])[*:1]; AMC = Cc1cc(=O)oc2cc(N*)ccc12

Regarding `O=C(O)c1cc(SSc2ccc([N+](=O)[O-])c(C(=O)O)c2)ccc1[N+](=O)[O-]` [DTNB, 5,5′-Dithio-bis-(2-nitrobenzoic acid)], the “hydrolysis / thioredoxin reductase activity” value in experiment [1] and in experiment [2] was “no significant activity; also recorded: no appreciable hydrolysis” throughout.

Regarding `CCCCCCCNC(=O)OC[C@H]1O[C@H](OC)[C@H](O)[C@@H](O)[C@@H]1O` [HECAMEG, Methyl-6-O—(N-heptylcarbamoyl)-α-D-glucopyranoside], in experiment [3], the “concentration sufficient to lyse Mycoplasma cells while not disrupting the membranes of the cultured cells” value came out at 0.5%.

For the compound `Nc1c(N=Nc2ccc(S(=O)(=O)CCOS(=O)(=O)[O-])cc2)c(S(=O)(=O)[O-])cc2cc(S(=O)(=O)[O-])c(N=Nc3ccc(S(=O)(=O)CCOS(=O)(=O)[O-])cc3)c(O)c12.[Na+].[Na+].[Na+].[Na+]` [reactive black 5], in [4], the decolorization result is “completely decolorized”.

On to `O=C(O)CN(CCN(CC(=O)O)CC(=O)O)CC(=O)O` [EDTA], for which the “Vmax, MCA-Leu Substrate” value in experiment [5] (Buffer) is 0; in [5] (Infected), 45241; in experiment [5] (Medium) it was 1710; in experiment [5] (Uninfected) it was 3873.

As for “arginine-(7-methoxycoumarin-4-yl)acetyl [arg-MCA]”, the “activity of M. hyorhinis for substrate” value in experiment [6] (0.05% HECAMEG, 1 mM MgCl2, 100 mM NaCl, 40 mM Tris buffer, pH 8.5) is “weak activity”. The Vmax is recorded as 0 in experiment [6] (Buffer), 60903 in experiment [6] (Infected medium), 676 in experiment [6] (Medium) and 29034 in experiment [6] (Uninfected medium).

With `Cc1cc(C)n2c1C=C1C=CC(CCC(=O)N[C@@H](CSSC[C@H](NC(=O)CCC3=[N+]4C(=Cc5c(C)cc(C)n5[B-]4(F)F)C=C3)C(=O)O)C(=O)O)=[N+]1[B-]2(F)F` [Bodipy® FL L-cystine, BODIPY®FL L-cystine], the “signal relative to buffer control” value in [7] (signal was an artifact of the digitonin) is 7500 times.

As to `CCN(Cc1cccc(S(=O)(=O)[O-])c1)c1ccc(C(=C2C=CC(=[N+](CC)Cc3cccc(S(=O)(=O)[O-])c3)C=C2)c2ccccc2S(=O)(=O)[O-])cc1.[Na+].[Na+]` [blue dye number 1], the decolorization result in experiment [4] is listed as “not decolorized”.

For the compound `Cc1cc(=O)oc2cc(NC(=O)[C@H](Cc3ccccc3)NC(=O)[C@H](C)NC(=O)[C@H](C)NC(=O)CCCC(=O)O)ccc12` [glt-ala-ala-phe-MCA] (Glutaryl-Ala-Ala-Phe-{AMC}), the Vmax came out at 55.8 in [8] (Buffer (PBS)), 1802 in experiment [8] (Infected medium), 3354 in experiment [8] (Mycoplasma positive control) and 1460 in experiment [8] (Uninfected medium).

Consider “leucine-(7-methoxycoumarin-4-yl)acetyl [leu-MCA]”, for which the Vmax in [9] (Buffer (PBS)) was 2874; in [9] (Infected medium), 906; in experiment [9] (Mycoplasma positive control), 522; in experiment [9] (Uninfected medium), 454; in experiment [6] (Buffer), 236; in [6] (Infected medium), 415190. For the same compound, the values for the Vmax in experiment [6] (Medium) and in experiment [6] (Uninfected medium) were 2118 and 17422, respectively. In addition, the signal level in experiment [6] (in 30 minutes with M. hyorhinis) was 500 mOD.

With “methionine-(7-methoxycoumarin-4-yl)acetyl [met-MCA]”, the Vmax is listed as 125 in [6] (Buffer); 302082 in [6] (Infected medium); 1731 in experiment [6] (Medium); 19004 in [6] (Uninfected medium); 19.4 in [10] (Buffer (PBS)); 627 in [10] (Infected medium). In addition, the Vmax in experiment [10] (Mycoplasma positive control) is listed as 733; in [10] (Uninfected medium), 430.

With `O=S(=O)([O-])[O-].[Mg+2]` [MgSO4], the “Vmax, MCA-Leu Substrate” value in experiment [5] (Buffer) is 483; in [5] (Infected) it was 90365; in experiment [5] (Uninfected) it was 5125.

As for `[Cl][Mn][Cl]` [MnCl2], the “Vmax, MCA-Leu Substrate” value in experiment [5] (Medium) is 1703.

Regarding `CN(C)c1ccc(N=Nc2ccc(SSCCC(=O)NCc3c(O)c(F)cc4c(-c5ccccc5C(=O)O)c5cc(F)c(=O)cc-5oc34)nc2)cc1` [DFDMAP fluorescein, 2′,7′-difluoro-4′-(2-(5-((dimethylaminophenyl)azo)pyridyl)dithiopropionylaminomethyl)fluorescein], the detection level in experiment [7] (at 10^7-10^8 CFU/ml) was 10,000-20,000 RFU.

As to `CN(C)c1ccc(N=Nc2ccc(C(=O)O)cc2)cc1` [DABCYL, 4-((4-(dimethylamino)phenyl)azo)benzoic acid], in experiment [4], the decolorization entry was “completely decolorized”.
